# Test results taken from ChEMBL document CHEMBL2429847, “Inhibitors of PI3Kβ as Potential Treatment for Cancer” (ACS Med Chem Lett, 2013).
# Assays:
# MDA-MB-468 = assay: Antiproliferative activity against PTEN-deficient human MDA-MB-468 cells after 6 days by Alamar blue assay; assay type: functional, cell-based; conditions: MDA-MB-468, 144 h
# [1] = target: Phosphatidylinositol 4,5-bisphosphate 3-kinase catalytic subunit beta isoform (Homo sapiens, UniProt P42338); assay: Inhibition of PI3Kbeta-mediated AKT phosphorylation at Ser473 in PTEN-deficient human MDA-MB-468 cells after 30 mins; assay type: cell-based
# Chain of Phosphatidylinositol 4,5-bisphosphate 3-kinase catalytic subunit beta isoform (P42338 whole entry, canonical isoform): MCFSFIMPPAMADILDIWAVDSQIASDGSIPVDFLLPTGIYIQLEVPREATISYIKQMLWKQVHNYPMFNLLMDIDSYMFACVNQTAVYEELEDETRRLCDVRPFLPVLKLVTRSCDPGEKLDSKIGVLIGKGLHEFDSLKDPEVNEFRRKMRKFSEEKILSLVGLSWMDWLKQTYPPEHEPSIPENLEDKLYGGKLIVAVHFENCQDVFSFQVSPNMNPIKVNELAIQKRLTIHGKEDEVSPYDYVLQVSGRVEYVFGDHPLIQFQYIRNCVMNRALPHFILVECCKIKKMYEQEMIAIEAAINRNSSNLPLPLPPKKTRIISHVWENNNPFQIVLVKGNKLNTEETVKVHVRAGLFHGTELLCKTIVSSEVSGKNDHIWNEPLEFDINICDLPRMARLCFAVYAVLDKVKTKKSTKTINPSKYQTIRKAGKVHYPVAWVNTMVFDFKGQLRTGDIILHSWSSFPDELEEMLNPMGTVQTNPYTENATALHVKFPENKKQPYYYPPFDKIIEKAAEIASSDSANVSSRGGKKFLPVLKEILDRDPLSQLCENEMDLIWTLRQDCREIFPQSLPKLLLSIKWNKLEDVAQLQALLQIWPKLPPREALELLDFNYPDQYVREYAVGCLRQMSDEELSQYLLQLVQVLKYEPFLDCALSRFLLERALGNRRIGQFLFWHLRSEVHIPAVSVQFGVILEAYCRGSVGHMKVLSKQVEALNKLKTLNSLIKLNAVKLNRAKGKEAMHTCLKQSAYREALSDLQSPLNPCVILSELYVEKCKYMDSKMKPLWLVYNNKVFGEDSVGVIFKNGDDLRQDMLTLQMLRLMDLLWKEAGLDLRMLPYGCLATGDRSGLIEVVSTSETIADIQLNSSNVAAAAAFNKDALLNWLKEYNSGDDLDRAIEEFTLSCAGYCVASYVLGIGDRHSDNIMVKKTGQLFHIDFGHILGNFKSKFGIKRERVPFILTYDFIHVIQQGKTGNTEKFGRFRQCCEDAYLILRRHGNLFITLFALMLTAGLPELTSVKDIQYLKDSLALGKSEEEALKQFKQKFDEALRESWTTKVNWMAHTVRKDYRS
EC50 (MDA-MB-468) [nM],IC50 [1] [nM],SMILES
18.1,15.9,Cc1c(Cl)cccc1Cn1c(C)nc2c(C(=O)O)cc(N3CCOCC3)nc21
153,41.4,Cc1nc2c(C(=O)O)cc(N3CCOCC3)nc2n1Cc1cccc(Cl)c1Cl
41,436,Cc1c(Cn2c(C)nc3c(C(=O)O)cc(N4CCOCC4)nc32)cccc1C(F)(F)F
